{
  "source": "paper PMC10969742",
  "about": "“A Phase I Study of the Oral Dual-Acting Pan-PI3K/mTOR Inhibitor Bimiralisib in Patients with Advanced Solid Tumors” (Cancers, 2024)",
  "origin": "cited, not measured here",
  "design": "method as in PMID 28490463",
  "conditions": "intermittent versus daily dosing; cited from earlier work",
  "data": [
    {"smiles": "Nc1nc2cc(-c3ccc4ncc(C(=O)N5CCOCC5)n4c3)ccc2o1", "note": "[TAK-117]", "values": [
      {"measurement": "Safety profile of intermittent dosing", "value": "acceptable safety profile"}
    ]}
  ]
}
